From US20240101572A1, “DIHYDROOXADIAZINONE COMPOUND AND PHARMACEUTICAL USE THEREOF” (Japan Tobacco Inc., priority 2022, published 2024)
pIC50: −log10 of the molar value. Like-named read-outs stand apart in the source and are kept apart here.

Experiments:
[1] = biological target: full-length human PLD2 (Homo sapiens (Human), UniProt O14939); experiment: Evaluation of human PLD2 enzyme inhibitory activity (Amplex Red / choline oxidase fluorescence); assay type: biochemical
How it was run: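 Enzyme was N-terminal FLAG-tagged full-length human PLD2 (1-933), expressed in Expi293F cells and anti-FLAG purified. Compound (5% DMSO final) was incubated with enzyme (6 nmol/L solution) and 1,2-diheptanoyl-PC (6 mmol/L solution) in HEPES pH 7.5, KCl, EGTA, MgCl2, NP-40, BSA buffer for 60 min at room temperature. Choline was detected with Amplex Red/choline oxidase/HRP.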

[2] = biological target: full-length human PLD1 (Homo sapiens (Human), UniProt Q13393); experiment: Evaluation of human PLD1 enzyme inhibitory activity (Amplex Red / choline oxidase fluorescence); assay type: biochemical
Chain of full-length human PLD1 (Q13393 other isoform, or with tags, fused parts or gaps): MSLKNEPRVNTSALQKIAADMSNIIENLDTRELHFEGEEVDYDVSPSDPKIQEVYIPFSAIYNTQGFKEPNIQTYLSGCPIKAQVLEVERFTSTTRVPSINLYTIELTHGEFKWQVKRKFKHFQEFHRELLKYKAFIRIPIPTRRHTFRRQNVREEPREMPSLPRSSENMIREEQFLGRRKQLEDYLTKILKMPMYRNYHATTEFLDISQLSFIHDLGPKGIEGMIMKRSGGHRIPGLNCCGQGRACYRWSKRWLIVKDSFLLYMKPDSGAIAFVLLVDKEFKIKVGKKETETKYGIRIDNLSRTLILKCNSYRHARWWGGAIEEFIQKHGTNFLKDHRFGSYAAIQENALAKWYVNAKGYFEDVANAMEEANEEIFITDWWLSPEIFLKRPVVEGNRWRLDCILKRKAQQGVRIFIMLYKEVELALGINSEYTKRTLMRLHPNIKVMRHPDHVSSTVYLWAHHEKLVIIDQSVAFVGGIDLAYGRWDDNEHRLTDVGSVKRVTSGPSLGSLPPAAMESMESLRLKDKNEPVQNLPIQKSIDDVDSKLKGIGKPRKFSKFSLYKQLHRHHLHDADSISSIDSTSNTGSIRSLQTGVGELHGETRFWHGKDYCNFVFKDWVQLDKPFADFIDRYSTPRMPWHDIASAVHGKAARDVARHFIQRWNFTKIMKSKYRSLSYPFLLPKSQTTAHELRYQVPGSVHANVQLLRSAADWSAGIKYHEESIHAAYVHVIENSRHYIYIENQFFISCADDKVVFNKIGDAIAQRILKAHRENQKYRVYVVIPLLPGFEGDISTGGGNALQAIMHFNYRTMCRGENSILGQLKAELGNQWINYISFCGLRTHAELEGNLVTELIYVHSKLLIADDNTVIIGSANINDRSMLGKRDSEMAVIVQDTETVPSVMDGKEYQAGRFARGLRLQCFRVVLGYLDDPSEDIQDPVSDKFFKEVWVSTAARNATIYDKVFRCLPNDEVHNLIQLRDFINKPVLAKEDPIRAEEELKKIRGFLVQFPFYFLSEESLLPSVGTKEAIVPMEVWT
How it was run: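 N-terminally FLAG-tagged full-length human PLD1 (1-1036), expressed in Expi293F and FLAG-purified, incubated with compound (5% DMSO final) and 1,2-diheptanoyl-sn-glycero-3-phosphocholine for 60 min at room temperature in HEPES pH 7.5 buffer. Released choline detected by Amplex Red/choline oxidase/HRP fluorescence.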

[3] = full-length human PLD2 enzyme, read-out: PLD2 IC50
[4] = full-length human PLD1 enzyme, read-out: PLD1 IC50
[5] = read-out: human PLD2 % inhibition at 10 μM
[6] = read-out: inhibition rate of PLD2 at 10 μM compound
[7] = read-out: human PLD1 % inhibition at 10 μM
[8] = read-out: inhibition rate of PLD1 at 10 μM compound

Chain of full-length human PLD2 (O14939 whole entry): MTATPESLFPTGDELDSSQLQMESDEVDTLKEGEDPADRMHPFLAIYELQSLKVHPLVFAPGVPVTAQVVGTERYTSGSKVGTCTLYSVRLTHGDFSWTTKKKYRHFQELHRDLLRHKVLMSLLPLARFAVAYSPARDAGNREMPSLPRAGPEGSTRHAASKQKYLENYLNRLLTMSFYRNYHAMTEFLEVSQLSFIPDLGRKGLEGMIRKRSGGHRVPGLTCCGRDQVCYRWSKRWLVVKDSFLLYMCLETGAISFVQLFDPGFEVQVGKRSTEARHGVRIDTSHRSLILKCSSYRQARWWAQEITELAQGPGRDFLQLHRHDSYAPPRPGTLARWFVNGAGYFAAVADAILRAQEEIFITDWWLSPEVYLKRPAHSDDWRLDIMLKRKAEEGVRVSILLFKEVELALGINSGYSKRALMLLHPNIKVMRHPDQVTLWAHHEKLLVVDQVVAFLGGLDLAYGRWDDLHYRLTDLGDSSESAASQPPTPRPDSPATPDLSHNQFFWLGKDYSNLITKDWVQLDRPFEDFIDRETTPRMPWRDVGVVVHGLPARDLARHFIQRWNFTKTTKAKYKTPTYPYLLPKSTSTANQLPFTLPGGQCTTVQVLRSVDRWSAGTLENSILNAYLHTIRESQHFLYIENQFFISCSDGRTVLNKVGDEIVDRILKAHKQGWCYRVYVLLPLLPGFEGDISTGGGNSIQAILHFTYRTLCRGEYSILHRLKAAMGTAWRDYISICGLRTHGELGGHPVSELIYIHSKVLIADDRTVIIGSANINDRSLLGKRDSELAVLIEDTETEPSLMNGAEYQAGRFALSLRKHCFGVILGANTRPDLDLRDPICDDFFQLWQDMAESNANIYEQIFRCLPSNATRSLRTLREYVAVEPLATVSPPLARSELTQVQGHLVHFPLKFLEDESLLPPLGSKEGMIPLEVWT

Structure (SMILES)	pIC50 [1, 3]	pIC50 [2, 4]	other results
Cc1cc(C(=O)N[C@@H](C)C[C@H]2CC[C@]3(CC2)OC(=O)NN=C3c2ccc(S(C)(=O)=O)cc2)[nH]n1 [Example 9]	7.25	7.08	–
CNC1(C(=O)N[C@@H](C)C[C@H]2CC[C@]3(CC2)OC(=O)NN=C3c2ccc(F)cc2Br)COC1 [Example 124]	5.56	6.20	–
C[C@@H](C[C@H]1CC[C@]2(CC1)OC(=O)NN=C2c1ccc(S(C)(=O)=O)cc1Br)NC(=O)c1cc(Cl)no1 [Example 48]	> 8.00	7.85	–
Cc1cc(F)ccc1C1=NNC(=O)O[C@]12CC[C@@H](C[C@H](C)NC(=O)c1ccc(Cl)cc1F)CC2 [Example 88]	7.19	7.25	–
Cc1cc(F)ccc1C1=NNC(=O)O[C@]12CC[C@@H](C[C@H](C)NC(=O)c1ccc(Cl)cn1)CC2 [Example 89]	7.43	7.42	–
C[C@@H](CN1CCC2(CC1)OC(=O)NN=C2c1ccc(F)cc1Cl)NC(=O)c1cc(Cl)no1 [Example 92]	7.89	7.59	–
Cc1cc(C(=O)N[C@@H](C)C[C@H]2CC[C@]3(CC2)OC(=O)NN=C3c2ccc(C(=O)NC3CC3)cc2C)[nH]n1 [Example 204]	6.84	6.91	–
C[C@@H](C[C@]1(C#N)CC[C@@]2(CC1)OC(=O)NN=C2c1cc(OC(F)F)ccc1Br)NC(=O)c1cn(C)cn1 [Example 2-078]	> 8.00	> 8.00	–
Cc1cc(C(=O)N[C@@H](C)C[C@H]2CC[C@]3(CC2)OC(=O)NN=C3c2cnc(N3CC4CCC(C3)O4)cc2Cl)[nH]n1 [Example 247]	> 8.00	7.85	–
C[C@@H](C[C@H]1CC[C@]2(CC1)OC(=O)NN=C2c1nccn1CC1CC1)NC(=O)c1cc2ccccc2o1 [Example 84]	7.28	7.15	–
CNC(=O)C(=O)N[C@@H](C)C[C@]1(C#N)CC[C@@]2(CC1)OC(=O)NN=C2c1cc(OC(F)F)ccc1Br [Example 2-055]	> 8.00	7.96	–
CNC(=O)C(=O)N[C@@H](C)C[C@H]1CC[C@]2(CC1)OC(=O)NN=C2c1ccc(OC(F)F)cc1Br [Example 140]	> 8.00	> 8.00	–
C[C@@H](C[C@H]1CC[C@]2(CC1)OC(=O)NN=C2c1ccc(F)cc1Cl)NC(=O)c1cc2cc(F)ccc2o1 [Example 61]	7.96	7.85	–
C[C@@H](C[C@H]1CC[C@]2(CC1)OC(=O)NN=C2c1cc(C#N)ccc1Br)NC(=O)C(=O)O [Example 2-171]	–	–	inhibition at 10 µM [1, 5]: 23%; inhibition at 10 µM [1, 6]: 23%; inhibition at 10 µM [2, 7]: 12%; inhibition at 10 µM [2, 8]: 12%
CNC(=O)C(=O)N[C@@H](C)C[C@H]1CC[C@]2(CC1)OC(=O)NN=C2c1cccc(OC(F)F)c1Br [Example 306]	> 8.00	> 8.00	–
C[C@@H](C[C@]1(C#N)CC[C@@]2(CC1)OC(=O)NN=C2c1cc(OCC(F)F)ncc1Br)NC(=O)C(=O)NC1CC1 [Example 2-101]	–	–	inhibition at 10 µM [1, 5]: 28%; inhibition at 10 µM [1, 6]: 28%; inhibition at 10 µM [2, 7]: 13%; inhibition at 10 µM [2, 8]: 13%
CNC(=O)C(=O)N[C@@H](C)C[C@H]1CC[C@]2(CC1)OC(=O)NN=C2c1ccc(Br)cc1Br [Example 60]	> 8.00	> 8.00	–
CNC(=O)C(=O)N[C@@H](C)C[C@H]1CC[C@]2(CC1)OC(=O)NN=C2c1cnccc1Br [Example 151]	> 8.00	7.74	–
CNC(=O)C(=O)N[C@@H](C)C[C@H]1CC[C@]2(CC1)OC(=O)NN=C2c1cn(CC(F)F)nc1I [Example 2-058]	7.18	7.59	–
C[C@@H](CN1CCC2(CC1)OC(=O)NN=C2c1ccc(F)cc1Br)NC(=O)NC1CC1 [Example 189]	6.85	6.89	–
C[C@@H](C[C@H]1CC[C@]2(CC1)OC(=O)NN=C2c1ccc(F)cc1Br)NC(=O)c1cc(Cl)no1 [Example 37]	> 8.00	> 8.00	–
[2H]C([2H])([2H])NC(=O)C(=O)N[C@@H](C)C[C@]1(OC)CC[C@@]2(CC1)OC(=O)NN=C2c1cccc(C(F)(F)F)c1Br [Example 2-129]	–	–	pIC50 ([1]; column 2 of continuation tables 2-12 to 2-14, read-out: human PLD2 enzyme inhibitory activity IC50): > 8.00; pIC50 ([2]; column 1 of continuation tables 2-12 to 2-14, read-out: human PLD1 enzyme inhibitory activity IC50): 7.60
CNC(=O)C(=O)N[C@@H](C)CN1CCC2(CO1)OC(=O)NN=C2c1cc(C#N)ccc1Br (stereo partly shown) [Example 2-025]	6.69	6.66	–
Cc1cc(N2CCOCC2)ccc1C1=NNC(=O)O[C@]12CC[C@@H](C[C@H](C)NC(=O)NC1CC1)CC2 [Example 229]	6.51	6.71	–
C[C@@H](C[C@H]1CC[C@]2(CC1)OC(=O)NN=C2c1cc(OCC(F)(F)F)ccc1Br)NC(=O)c1cnn(C)c1 [Example 305]	> 8.00	7.82	–
Cc1cc(C(=O)N[C@@H](C)CN2CCC3(CC2)OC(=O)NN=C3c2ccc(C#N)cc2C(F)(F)F)[nH]n1 [Example 326]	7.42	7.27	–

Structure (SMILES)	pIC50 [1, 3]	pIC50 [2, 4]	other results
CNC(=O)C(=O)N[C@@H](C)C[C@H]1CC[C@]2(CC1)OC(=O)NN=C2c1ccc(F)cc1C1CC1 [Example 64]	> 8.00	7.74	–
Cc1cc(C(=O)N[C@@H](C)C[C@H]2CC[C@]3(CC2)OC(=O)NN=C3c2cnc(N3C[C@H]4C[C@@H]3CO4)cc2Cl)[nH]n1 [Example 239]	> 8.00	7.74	–
CNC(=O)C(=O)N[C@@H](C)C[C@H]1CC[C@]2(CC1)OC(=O)NN=C2c1cc(C(=O)N2CC(F)(F)C2)ccc1Br [Example 2-057]	> 8.00	7.74	–
C[C@@H](C[C@H]1CC[C@]2(CC1)OC(=O)NN=C2c1ccccc1S(C)(=O)=O)NC(=O)c1cc(Cl)no1 [Example 78]	6.60	6.46	–
CNC(=O)C(=O)N[C@@H](C)C(C#N)N1CCC2(CC1)OC(=O)NN=C2c1ccc(F)cc1Br (mixture of isomers) [Example 2-010]	5.90	5.99	–
C[C@@H](CC1CCC2(CC1)OC(=O)NN=C2c1ccncc1Br)NC(=O)c1cc2ccccc2o1 (mixture of isomers) [Example 122]	> 8.00	> 8.00	–
Cc1cc(C(=O)N[C@@H](C)C[C@H]2CC[C@]3(CC2)OC(=O)NN=C3c2cnc(N3C[C@@H]4C[C@H]3CO4)cc2C)[nH]n1 [Example 250]	> 8.00	7.66	–
CNC(=O)C(=O)N[C@@H](C)C[C@H]1CC[C@]2(CC1)OC(=O)NN=C2c1cc(OC)c(F)cc1Br [Example 2-050]	> 8.00	7.92	–
CNC(=O)C(=O)N[C@@H](C)C[C@H]1CC[C@]2(CC1)OC(=O)NN=C2c1ccccc1C [Example 119]	> 8.00	7.96	–
C[C@@H](C[C@H]1CC[C@]2(CC1)OC(=O)NN=C2c1ccc(F)cc1Cl)NC(=O)c1cc(Cl)no1 [Example 63]	> 8.00	> 8.00	–
C[C@@H](CN1CCC2(CC1)OC(=O)NN=C2c1ccc(F)cc1Cl)NC(=O)c1cc2cc(F)ccc2o1 [Example 91]	7.82	7.64	–
CNC(=O)C(=O)N[C@@H](C)C[C@H]1CC[C@]2(CC1)OC(=O)NN=C2c1cccc2c1OCC2 [Example 106]	7.32	7.59	–
CNC(=O)C(=O)N[C@@H](C)C[C@H]1CC[C@]2(CC1)OC(=O)NN=C2c1cnc(N2CCCC2)cc1C [Example 165]	> 8.00	7.72	–
C[C@@H](CN1CCC2(CC1)OC(=O)NN=C2c1ccc(C#N)cc1Br)NC(=O)c1cncn1C [Example 2-059]	6.30	6.14	–
CNC(=O)C(=O)N[C@@H](C)C[C@H]1CC[C@]2(CC1)OC(=O)NN=C2c1cc(C(=O)OC)ccc1Br [Example 2-032]	> 8.00	7.96	–
COC(=O)/C=C/C(=O)N[C@@H](C)CN1CCC2(CC1)OC(=O)NN=C2c1cc(C#N)ccc1Br [Example 2-024]	7.55	7.34	–
[2H]C([2H])([2H])NC(=O)C(=O)N[C@@H](C)CN1CCC2(CC1)OC(=O)NN=C2c1cc(C#N)c(F)cc1Br [Example 2-004]	> 8.00	7.17	–
C[C@@H](C[C@H]1CC[C@]2(CC1)OC(=O)NN=C2c1ccc(C#N)cc1Br)NC(=O)N1Cc2ccccc2C1 [Example 109]	> 8.00	7.92	–
C[C@@H](C[C@H]1CC[C@]2(CC1)OC(=O)NN=C2c1cc(OCC(F)(F)F)ccc1Br)NC(=O)C(=O)NC1CC1 [Example 297]	> 8.00	7.89	–
CNC(=O)C(=O)N[C@@H](C)CN1CCC2(CC1)OC(=O)NN=C2c1cc(C(=O)NC)ccc1Br [Example 2-037]	7.89	7.37	–
C[C@@H](CN1CCC2(CC1)OC(=O)NN=C2c1ccc(C(N)=O)cc1Br)NC(=O)c1cnn(C)c1 [Example 337]	7.55	7.13	–
C[C@@H](C[C@H]1CC[C@]2(CC1)OC(=O)NN=C2c1ccc(F)cc1Br)NC(=O)c1cc2ccccc2o1 [Example 19]	8.00	7.77	–
C[C@@H](C[C@H]1CC[C@]2(CC1)OC(=O)NN=C2c1cc(C#N)ccc1Br)NC(=O)c1cnn(C)c1 [Example 325]	> 8.00	7.82	–
CNC(=O)C(=O)N[C@@H](C)C[C@H]1CC[C@]2(CC1)OC(=O)NN=C2c1cc(C(F)(F)F)ncc1Br [Example 2-075]	> 8.00	7.80	–
CNC(=O)C(=O)N[C@@H](C)C[C@H]1CC[C@]2(CC1)OC(=O)NN=C2c1cnc(N2CCOCC2)cc1C [Example 164]	> 8.00	7.42	–
